Columns and labels:
CCR1 = target: T1, CCR1 (Homo sapiens, UniProt P32246); experiment: Chemotaxis assay (inhibition of CCR1 mediated migration); type: cell-based; conditions: chemotaxis of THP-1 or monocyte cells toward CCR1 chemokine ligand (MIP-1α, CCL15/leukotactin); read-out: Avg Mig IC50
T1 construct: host or cells: THP-1 cells (or freshly isolated monocytes)
T1 sequence (P32246 1-355): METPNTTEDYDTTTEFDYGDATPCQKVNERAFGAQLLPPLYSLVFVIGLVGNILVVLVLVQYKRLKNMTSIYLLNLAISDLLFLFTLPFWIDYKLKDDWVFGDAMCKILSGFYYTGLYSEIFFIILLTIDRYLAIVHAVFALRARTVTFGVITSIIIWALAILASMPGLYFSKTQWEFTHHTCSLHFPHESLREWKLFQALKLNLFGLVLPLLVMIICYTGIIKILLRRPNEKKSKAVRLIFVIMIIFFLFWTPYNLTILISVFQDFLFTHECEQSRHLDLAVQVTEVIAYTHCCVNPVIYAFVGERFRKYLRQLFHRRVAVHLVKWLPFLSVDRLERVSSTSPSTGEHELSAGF
Experimental: THP-1 cells were obtained from ATCC (TIB-202) and cultured as a suspension in RPMI-1640 medium supplemented with 2 mM L-glutamine, 1.5 g/L sodium bicarbonate, 4.5 g/L glucose, 10 mM HEPES, 1 mM sodium pyruvate, 0.05% 2-mercaptoethanol and 10% FBS. Cells were grown under 5% CO2/95% air, 100% humidity at 37° C. and subcultured twice weekly at 1:5 (cells were cultured at a density range of 2×10^5 to 2×10^6 cells/mL) and harvested at 1×10^6 cells/mL. THP-1 cells express CCR1 and can be used in CCR1 binding and functional assays.
Chemotaxis assays were performed using 5 μm pore polycarbonate, polyvinylpyrrolidone-coated filters in 96-well chemotaxis chambers (Neuroprobe; Gaithersburg, Md.) using chemotaxis buffer (Hank's balanced salt solution (HBSS) and 1% FBS). CCR1 chemokine ligands (i.e., MIP-1α, CCL15/Leukotactin; R&D Systems; Minneapolis, Minn.) are use to evaluate compound mediated inhibition of CCR1 mediated migration. Other chemokines (i.e., SDF-1α; R&D Systems; Minneapolis, Minn.) are used as specificity controls. The lower chamber was loaded with 29 μl of chemokine (i.e., 0.1 nM CCL15/Leukotactin) and varying amounts of compound; the top chamber contained 100,000 THP-1 or monocyte cells in 20 μl. The chambers were incubated 1-2 hours at 37° C., and the number of cells in the lower chamber quantified either by direct cell counts in five high powered fields per well or by the CyQuant assay (Molecular Probes), a fluorescent dye method that measures nucleic acid content and microscopic observation.
One of the primary functions of chemokines is their ability to mediate the migration of chemokine receptor-expressing cells, such as white blood cells. To confirm that a compound of interest inhibited not only CCR1 specific binding and signaling (at least as determined by calcium mobilization assays), but also CCR1 mediated migration, a chemotaxis assay was employed. THP-1 myelomonocytic leukemia cells, which resemble monocytes, as wells as freshly isolated monocytes, were used as targets for chemoattraction by CCR1 chemokine ligands (i.e., MIP-1α, CCL15/leukotactin). Cells were placed in the top compartment of a microwell migration chamber, while MIP-1α (or other potent CCR1 chemokine ligand) and increasing concentrations of a compound of interest was loaded in the lower chamber. […] To ascertain a compound of interest's affinity for CCR1 as well as to confirm its ability to inhibit CCR1 mediated cell migration, inhibitory activity was titered over a 1×10^−10 to 1×10^−4 M range of compound concentrations in this chemotaxis assay. In this assay, the amount of compound was varied; while cell number and chemokine agonist concentrations were held constant. After the chemotaxis chambers were incubated 1-2 hours at 37° C., the responding cells in the lower chamber were quantified by labeling with the CyQuant assay (Molecular Probes), a fluorescent dye method that measures nucleic acid content, and by measuring with a Spectrafluor Plus (Tecan). The computer program Prism from GraphPad, Inc. (San Diego, Calif.) was used to calculate IC50 values. IC50 values are those compound concentrations required to inhibit the number of cells responding to a CCR1 agonist by 50%.

[1] = tested on: inflammatory cells recruited to the inflamed synovial fluid of the knee joints; experiment: Rabbit model of destructive joint inflammation (rabbit LPS study); type: in vivo; conditions: female New Zealand rabbits, intra-articular LPS 10 ng, oral dosing in 1% methocel 2 h before and 4 h after LPS, lavage at 16 h
Experimental: a) Rabbit Model of Destructive Joint Inflammation
A rabbit LPS study was conducted essentially as described in Podolin, et al. J. Immunol. 169(11):6435-6444 (2002). Female New Zealand rabbits (approximately 2 kilograms) were treated intra-articularly in both knees with LPS (10 ng). The compound of interest, for example 1.016, (formulated in 1% methocel) or vehicle (1% methocel) was dosed orally at a 5 ml/kg dose volume at two times (2 hours before the intra-articular LP S injection and 4 hours after the intra-articular LP S injection). Sixteen hours after the LP S injection, knees were lavaged and cells counts were performed. Beneficial effects of treatment were determined by reduction in the number of inflammatory cells recruited to the inflamed synovial fluid of the knee joints.

CCR1 bearing neutrophils = experiment: Murine model of inflammation (thioglycolate induced peritoneal inflammation); type: in vivo; conditions: 3% thioglycolate into the peritoneum
Experimental: Murine Model of Inflammation
A method of inducing peritoneal inflammation by the introduction of 3% thioglycolate into the peritoneum is well know in the art. Following the introduction of thioglycolate, a rapid influx of immune cells to the site, primarily CCR1 bearing neutrophils, results in local inflammation at 24 hours. A peritoneal exudate can be sampled, and the cell number and composition can be assessed to determine the anti-inflammatory properties of a compound of interest administered before, during or after the thioglycolate induction.

SMILES	IC50 (CCR1)	further results
Cc1nc(C(F)(F)F)cn1C1CCN(c2cnn(-c3ccc(F)cc3)c2N(C)C)C1=O (stereo not drawn) [Compound 1.001]	100 to 20000 nM	–
Cc1nc(C(F)(F)F)cn1C1CCN(c2cnn(-c3ccc(F)cc3)c2OC(C)C)C1=O (stereo not drawn) [Compound 1.002]	≤ 100 nM	–
Cc1nc(C(F)(F)F)cn1C1(C)CCN(c2cnn(-c3ccc(Cl)cc3)c2C(C)C)C1=O (stereo not drawn) [Compound 1.003]	100 to 20000 nM	–
CCc1nc(C(F)(F)F)cn1C1CCN(c2cnn(-c3ccc(Cl)cc3)c2C(C)C)C1=O (stereo not drawn) [Compound 1.004]	≤ 100 nM	–
Cc1nc(C(F)(F)F)cn1C1CC(C)N(c2cnn(-c3ccc(F)cc3)c2C(C)C)C1=O (stereo not drawn) [Compound 1.005]	100 to 20000 nM	–
Cc1c(Cl)c(C(F)(F)F)nn1C1CCN(c2cnn(-c3ccc(F)cc3)c2C2CC2)C1=O (stereo not drawn) [Compound 1.006]	≤ 100 nM	–
CCCc1c(N2CCC(n3nc(C(F)(F)F)c(Cl)c3C)C2=O)cnn1-c1ccc(F)cc1 (stereo not drawn) [Compound 1.007]	100 to 20000 nM	–
Cc1nc(C(F)(F)F)cn1C1CCN(c2cnn(-c3ccc(Cl)cc3)c2C(C)C)C1=O (stereo not drawn) [Compound 1.008]	≤ 100 nM	–
Cc1c(Cl)c(C(F)(F)F)nn1C1CC(C)N(c2cnn(-c3ccc(F)cc3)c2C(C)C)C1=O (stereo not drawn) [Compound 1.009]	≤ 100 nM	–
CCC(C)c1c(N2CCC(n3nc(C(F)(F)F)c(Cl)c3C)C2=O)cnn1-c1ccc(F)cc1 (stereo not drawn) [Compound 1.010]	≤ 100 nM	–
Cc1c(Cl)c(C(F)(F)F)nn1C1CCN(c2cnn(-c3ccc(Cl)cc3)c2C(C)C)C1=O (stereo not drawn) [Compound 1.011]	≤ 100 nM	–
C/C=C(\C)c1c(N2CCC(n3nc(C(F)(F)F)c(Cl)c3C)C2=O)cnn1-c1ccc(F)cc1 (stereo not drawn) [Compound 1.012]	100 to 20000 nM	–
CC(C)c1c(N2CCC(n3ccc(C(F)(F)F)n3)C2=O)cnn1-c1ccc(F)cc1 (stereo not drawn) [Compound 1.013]	100 to 20000 nM	–
CC(C)c1c(N2CCC(n3nc(-c4ncc[nH]4)c4c(N)ncnc43)C2=O)cnn1-c1ccc(F)cc1 (stereo not drawn) [Compound 1.014]	100 to 20000 nM	–
Cc1c(Cl)c(-c2ncc[nH]2)nn1C1CCN(c2cnn(-c3ccc(F)cc3)c2C(C)C)C1=O (stereo not drawn) [Compound 1.015]	100 to 20000 nM	–
CC(C)c1c(N2CCC(n3cnc(C(F)(F)F)c3)C2=O)cnn1-c1ccc(F)cc1 (stereo not drawn) [Compound 1.016]	100 to 20000 nM	reduction in the number of inflammatory cells recruited to the inflamed synovial fluid of the knee joints [1]: significant reduction in recruited inflammatory cells
Cc1nn(C2CCN(c3cnn(-c4ccc(F)cc4)c3C(C)C)C2=O)c(C(C)(C)O)c1Cl (stereo not drawn) [Compound 1.017]	100 to 20000 nM	–
Cc1c(Cl)c(C(C)(C)O)nn1C1CCN(c2cnn(-c3ccc(F)cc3)c2C(C)C)C1=O (stereo not drawn) [Compound 1.018]	100 to 20000 nM	–
CCCc1c(N2CCC(n3nc(C(F)(F)F)c(Cl)c3C)C2=O)cnn1-c1cccc(F)c1 (stereo not drawn) [Compound 1.019]	100 to 20000 nM	–
Cc1c(Cl)c(C(F)(F)F)nn1C1CCN(c2cnn(-c3ccc(F)cc3)c2C(C)(C)C)C1=O (stereo not drawn) [Compound 1.020]	100 to 20000 nM	–
CC(C)c1c(N2CCC(n3nc(-c4ncc[nH]4)c4cccnc43)C2=O)cnn1-c1ccc(F)cc1 (stereo not drawn) [Compound 1.021]	100 to 20000 nM	–
Cc1cc(C(F)(F)F)nn1C1CCN(c2cnn(-c3ccc(F)cc3)c2C(C)C)C1=O (stereo not drawn) [Compound 1.022]	≤ 100 nM	–
Cc1c(Cl)c(C(F)(F)F)nn1C1CCN(c2cnn(-c3cccc(F)c3)c2I)C1=O (stereo not drawn) [Compound 1.023]	100 to 20000 nM	–

SMILES	IC50 (CCR1)	further results
Cc1c(Cl)c(C(F)(F)F)nn1C1CCN(c2cnn(-c3cccc(F)c3)c2C2CC2)C1=O (stereo not drawn) [Compound 1.024]	100 to 20000 nM	–
Cc1nc(C(F)(F)F)cn1C1CCN(c2cnn(-c3ccc(F)cc3)c2C(C)C)C1=O (stereo not drawn) [Compound 1.025]	≤ 100 nM	–
Cc1c(Cl)c(C(F)(F)F)nn1C1CCN(c2cnn(-c3ccc(F)cc3)c2-c2ccccc2)C1=O (stereo not drawn) [Compound 1.026]	100 to 20000 nM	–
Cc1c(Cl)c(C(F)(F)F)nn1C1CCN(c2cnn(-c3cccc(F)c3)c2-c2ccoc2)C1=O (stereo not drawn) [Compound 1.027]	100 to 20000 nM	–
Cc1c(Cl)c(C(F)(F)F)nn1C1CCN(c2cnn(-c3ccc(F)cc3)c2C(C)C)C1=O (stereo not drawn) [Compound 1.028]	≤ 100 nM	–
Cc1c(N2CCCCC(n3nc(C(F)(F)F)c(Cl)c3C)C2=O)cnn1-c1ccc(F)cc1 (stereo not drawn) [Compound 1.029]	100 to 20000 nM	–
Cc1c(N2CCCC(n3nc(C(F)(F)F)c(Cl)c3C)C2=O)cnn1-c1ccc(F)cc1 (stereo not drawn) [Compound 1.030]	100 to 20000 nM	–
Cc1nc(C(F)(F)F)cn1C1CCCN(c2cnn(-c3ccc(F)cc3)c2C)C1=O (stereo not drawn) [Compound 1.031]	100 to 20000 nM	–
CCc1c(N2CCC(n3nc(C(F)(F)F)c(Cl)c3C)C2=O)cnn1-c1ccc(F)cc1 (stereo not drawn) [Compound 1.032]	≤ 100 nM	–
Cc1nc(C(F)(F)F)cn1C1CCN(c2cnn(-c3ccc(F)cc3)c2C)C1=O (stereo not drawn) [Compound 1.033]	100 to 20000 nM	–
Cc1c(N2CCC(n3nc(C(F)(F)F)nc3C)C2=O)cnn1-c1ccc(F)cc1 (stereo not drawn) [Compound 1.034]	100 to 20000 nM	–
Cc1c(N2CCC(n3nc(C(F)(F)F)c(Cl)c3C)C2=O)cnn1-c1ccc(F)cc1 (stereo not drawn) [Compound 1.035]	100 to 20000 nM	–
Cc1nc(C(F)(F)F)cn1C1CCCN(c2cnn(-c3ccc(F)cc3)c2C)C1=O (stereo not drawn) [Compound 1.036]	100 to 20000 nM	–
Cc1c(Cl)c(C(F)(F)F)nn1C1CCCN(c2cnn(-c3ccc(F)cc3)c2)C1=O (stereo not drawn) [Compound 1.037]	100 to 20000 nM	–
Cc1cc(C(F)(F)F)nn1C1CCN(c2cnn(-c3ccc(F)cc3)c2)C1=O (stereo not drawn) [Compound 1.038]	100 to 20000 nM	–
Cc1nc(C(F)(F)F)cn1C1CCN(c2cnn(-c3ccc(F)cc3)c2)C1=O (stereo not drawn) [Compound 1.039]	100 to 20000 nM	–
Cc1c(Cl)c(C(F)(F)F)nn1C1CCN(c2cnn(-c3ccc(F)cc3)c2)C1=O (stereo not drawn) [Compound 1.040]	100 to 20000 nM	–
COc1cc(-n2ncc(N3CC[C@H](n4cc(C(F)(F)F)nc4C)C3=O)c2C(C)C)ccc1Cl [Compound 1.041]	100 to 20000 nM	–
Cc1nc(C(F)(F)F)cn1[C@H]1CCN(c2nnn(-c3ccc(Cl)cc3)c2C(C)C)C1=O [Compound 1.042]	≤ 100 nM	neutrophil number in peritoneal exudate (CCR1 bearing neutrophils): dramatic decrease; total cell number in peritoneal exudate (CCR1 bearing neutrophils): dramatic decrease
Cc1nc(C(F)(F)F)cn1C1CCN(c2cnn(-c3ccc(Cl)cc3)c2C(F)(F)F)C1=O (stereo not drawn) [Compound 1.043]	100 to 20000 nM	–
Cc1nc(C(F)(F)F)cn1C1CCN(c2cnn(-c3ccc(Cl)cc3)c2C2CCC2)C1=O (stereo not drawn) [Compound 1.044]	≤ 100 nM	–
Cc1nc(C(F)(F)F)cn1[C@H]1CCN(c2cnn(-c3ccc(Cl)cc3)c2C(C)C)C1=O [Compound 1.045]	≤ 100 nM	–
